Broadly, the IC50 is the concentration that gives 50% inhibition.

Data on eight compounds can be found in patent US7067553B2, “Thiourea compounds and the pharmaceutical compositions containing the same” (Pacific Corporation, priority 2000, dated 2006).

For one experiment, the target named is T1, vanilloid receptor (Rattus norvegicus, UniProt O35433).
T1 construct: DRG nerve cells from the primary culture of 2–3 days were equilibrated; endogenous in cells; host or cells: primary culture of dorsal root ganglion neurons from neonatal SD rats
In words: 45Ca influx test (calcium uptake) in cultured DRG neurons, capsaicin-stimulated. The experiment is classed as cell-based. The following applies: neonatal SD rat DRG neurons; capsaicin 0.5 μM; 45Ca 10 μCi/ml; 10 min at room temperature; NR: no response. The protocol:
1) Separation of Spinal Dorsal Root Ganglia (DRG) in Newborn Rats and Primary Culture Thereof
Neonatal(2-day old or younger than 2-day old) SD rats were put in ice for 5 minutes to anesthetize and disinfected with 70% ethanol. DRG of all part of spinal cord were dissected (Wood et al., 1988, J. Neurosci. 8, pp3208–3220) and collected in DME/F12 medium to which 1.2 g/l sodium bicarbonate, 50 mg/l gentamycin were added. The DRG were incubated sequentially at 37° C. for 30 min in 200 U/ml collagenase and 2.5 mg/mil trypsin, separately. The ganglia were washed twice with DME/F12 medium supplemented with 10% horse serum, triturated through a fire-polished Pasteur pipette, filtered through Nitex 40 membrane to obtain single cell suspension. This was subjected to centrifugation, then re-suspended in cell culture medium at certain level of cell density. As the cell culture medium, DME/F12 medium supplemented with 10% horse serum, diluted 1:1 with identical medium conditioned by C6 glioma cells (2 days on a confluent monolayer) was used, and NGF(Nerve Growth Factor) was added to final concentration of 200 ng/ml. After the cells were grown 2 days in medium where cytosine arabinoside (Ara-C, 100 μM) was added to kill dividing nonneuronal cells, medium was changed to one without Ara-C. The resuspended cells were plated at a density of 1500–1700 neurons/well onto Terasaki plates previously coated with 10 μg/ml poly-D-ornithine.
2) ^45Ca Influx Experiments
DRG nerve cells from the primary culture of 2–3 days were equilibrated by washing 4 times with HEPES (10 mM, pH 7.4)-buffered Ca^2+, Mg^2+-free HBSS (H-ABSS). The solution in each well was removed from the individual well. Medium containing the test compound plus capsaicin (final concentration 0.5 μM) and ^45Ca (final concentration 10 μCi/ml) in H-HBSS was added to each well and incubated at room temperature for 10 min. Terasalki plates were washed six times with H-HBSS and dried in an oven. To each well, 0.3% SDS (10 μl) was added to elute ^45Ca. After the addition of […] of scintillation cocktail into each well, the amount of ^45Ca influx into neuron was measured by counting radioactivity.

For experiment [1], the system named is Male ICR mice. Briefly: Antiinflammatory activity test: TPA-induced mouse ear edema test. It counts as in vivo. The following applies: dose 1 mg/ear topical; TPA 2.5 μg; ear weight 24 h after TPA. The protocol:
(4) Antiinflammatory Activity Test: TPA(12-O-tetradecanoylphorbol 13-acetate)-induced Mouse Ear Edema Test
Male ICR mice(body weight 25–30 g), 10 animals/group, were treated topically on the right ear with 30 μl of TPA (2.5 μg) solution in acetone and after 15 min. 30 μl of acetone or test compound solution in acetone was applied topically. After six hours, an identical treatment was applied again. After twenty four hours following the treatment of TPA, the animals were sacrificed and ear tissue was dissected using 6 mm-diameter punch. Ear tissue dissected were weighed to the nearest 0.1 mg on an electrobalance. The increased weight of the tissue compared to control group was considered as an index of inflammation. The percent inhibition is defined by the following equation: % inlibition=(C−T)/C×100, wherein C and T represent an increase of ear weight in TPA-treated and TPA+drug-treated group, respectively.

The subject of experiment [2] is Male ICR mice. In words: Analgesic activity test: mouse writhing test by inducing with phenyl-p-quinone. The experiment is classed as in vivo. The following applies: dose 1 mg/kg intraperitoneally 30 min before phenyl-p-quinone; writhes vs control. How it is done: (3) Analgesic Activity Test: Mouse Writhing Test by Inducing with Phenyl-p-quinone
Male ICR mice (mean body weight 25 g) were maintained in a controlled lighting environment (12 h on/12 h off for experiment. Animals received an intraperitoneal injection of 0.3 ml of the chemical irritant phenyl-p-quinone (dissolved in saline containing 5% ethanol to be a dose of 4.5 mg/lkg) and 6 min later, the number of abdominal constrictions was counted in the subsequent 6 min period. Animals (10 animals/group) received 0.2 ml of test compounds solution in vehicle of ethanol/Tween 80/saline (10/10/80) intraperitoneally 30 min before the injection of phenyl-p-quinone. A reduction in the number of writhes responding to the test drug compound relative to the number responding in saline control group was considered to be indicative of an analgesic effect. Analgesic effect was calculated by % inhibition equation (% inhibitio=(C−T)/C×100), wherein C and T represent the number of writhes in control and compound-treated group, respectively (Table 2).
(Writhing tests count abdominal constrictions after an irritant is injected.)

T1 sequence (O35433 whole entry): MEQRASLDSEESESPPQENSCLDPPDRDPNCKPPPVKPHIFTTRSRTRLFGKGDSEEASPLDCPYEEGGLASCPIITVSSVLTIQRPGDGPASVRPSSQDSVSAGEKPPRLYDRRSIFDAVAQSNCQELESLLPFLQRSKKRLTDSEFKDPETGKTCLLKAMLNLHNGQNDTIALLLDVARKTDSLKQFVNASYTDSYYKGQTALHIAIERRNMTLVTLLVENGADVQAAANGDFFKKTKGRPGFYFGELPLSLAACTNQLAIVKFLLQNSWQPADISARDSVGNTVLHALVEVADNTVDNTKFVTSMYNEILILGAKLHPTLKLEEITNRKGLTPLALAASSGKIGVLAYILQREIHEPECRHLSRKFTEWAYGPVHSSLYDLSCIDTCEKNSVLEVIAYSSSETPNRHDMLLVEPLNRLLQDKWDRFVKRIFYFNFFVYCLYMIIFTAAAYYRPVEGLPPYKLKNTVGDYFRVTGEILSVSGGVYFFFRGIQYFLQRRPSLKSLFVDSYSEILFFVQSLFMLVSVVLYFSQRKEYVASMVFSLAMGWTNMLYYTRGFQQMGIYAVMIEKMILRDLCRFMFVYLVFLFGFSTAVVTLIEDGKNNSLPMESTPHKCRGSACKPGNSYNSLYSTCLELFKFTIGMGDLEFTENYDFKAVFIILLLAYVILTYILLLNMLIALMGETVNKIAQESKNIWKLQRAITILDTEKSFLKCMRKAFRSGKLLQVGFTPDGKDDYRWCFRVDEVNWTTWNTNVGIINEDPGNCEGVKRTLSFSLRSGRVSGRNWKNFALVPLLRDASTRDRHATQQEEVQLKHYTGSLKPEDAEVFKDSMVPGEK

For `Cc1ccc(CC(CN/C(S)=N/Cc2ccc(NS(C)(=O)=O)cc2)COC(=O)c2ccccc2)cc1C` (stereo not shown) [Example 9], at vanilloid receptor, the 50% inhibitory concentration (IC50) came out at 13000 nM.
Same read-out and setting: in the case of `CC(C)(C)C(=O)OCC(C/N=C(\S)NCc1ccc(NS(C)(=O)=O)cc1)Cc1ccc(C(C)(C)C)cc1` (stereo not shown) [Example 10] it was 2500 nM; in that of `CC(C)(C)c1ccc(CC(CNC(=S)NCc2ccc(NS(C)(=O)=O)cc2)COC(=O)c2ccccc2)cc1` (stereo not shown) [Example 11], more than 50000 nM.
With `COc1cc(CNC(=S)NCC(COC(=O)C(C)(C)C)Cc2ccc(C)c(C)c2)ccc1NS(C)(=O)=O` (stereo not shown) [Example 12], the “Anti-inflammatory effect (% Inhibition)” value in the experiment with Male ICR mice [1] was 41%. In addition, the “Analgesic effect (% Inhibition)” value with Male ICR mice [2] was 65%. In addition, at vanilloid receptor, the IC50 came to 680 nM.
Consider `COc1cc(CNC(=S)NCC(COC(=O)c2ccccc2)Cc2ccc(C)c(C)c2)ccc1NS(C)(=O)=O` (stereo not shown) [Example 13], for which, at vanilloid receptor, the IC50 came to 38000 nM.
Turning to `COc1cc(C/N=C(\S)NCC(COC(=O)c2ccccc2)Cc2ccc(C(C)(C)C)cc2)ccc1NS(C)(=O)=O` (stereo not shown) [Example 15], the IC50 at vanilloid receptor is more than 50000 nM.
For the compound `Cc1ccc(CCC(CNC(=S)NCc2ccc(NS(C)(=O)=O)cc2)COC(=O)C(C)(C)C)cc1C` (stereo not shown) [Example 16], the IC50 at vanilloid receptor turned out to be 1100 nM.
On the same count and under the same terms, under `CC(C)(C)C(=O)OCC(CCc1ccc(C(C)(C)C)cc1)CNC(=S)NCc1ccc(NS(C)(=O)=O)cc1` (stereo not shown) [Example 17] stands 1800 nM.
